Test results published in paper PMC5942779, “Identification of a peptide inhibitor for the histone methyltransferase WHSC1” (PLoS ONE, 2018).
Square brackets hold non-standard residues; d marks the D form. Peptide text beside a SMILES is read from it. Nle = CCCC[C@H](N)C(=O)O

Tests used:
WHSC1 941–1240 = target: T1, WHSC1 941–1240 (Homo sapiens, UniProt O96028); test: WHSC1 941–1240 radiometric biochemical assay (3H methyl transfer from SAM to biotinylated H4 peptide); conditions: for IC50: radiometric, 10 nM enzyme, 1 μM total SAM, 0.5 μM H4 peptide, 30 min pre-incubation, 120 min, 25°C, pH 8.0, three independent replicates
T1 construct: GST-tagged WHSC1 941–1240 (#51026); GST; purchased BPS Bioscience 51026
T1 sequence (O96028 941-1240): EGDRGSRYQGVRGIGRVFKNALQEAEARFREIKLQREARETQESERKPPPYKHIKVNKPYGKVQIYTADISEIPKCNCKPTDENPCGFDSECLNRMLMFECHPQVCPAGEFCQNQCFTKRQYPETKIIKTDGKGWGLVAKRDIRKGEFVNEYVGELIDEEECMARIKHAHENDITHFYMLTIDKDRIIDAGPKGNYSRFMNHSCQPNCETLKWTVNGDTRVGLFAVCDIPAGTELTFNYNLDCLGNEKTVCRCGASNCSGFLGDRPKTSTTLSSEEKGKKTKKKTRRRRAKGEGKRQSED
Procedure: (§1) An optimized 1× assay buffer containing 20 mM Tris-HCl (pH 8.0), 1 mM DTT, 0.005% Tween-20, and 0.01% bovine skin gelatin was utilized. […] The reaction was quenched after 120 minutes by adding excess (1 mM final concentration) unlabeled SAM. Quenched reactions were transferred onto streptavidin coated Flashplates (PerkinElmer), incubated for 2 hours, washed 1x with 0.1% Tween 20, and read on a Topcount instrument (PerkinElmer).
(§2) The reaction was initiated by adding 10 μL substrate mix containing peptide and SAM. Concentration–response curves in units of percent inhibition were plotted as a function of inhibitor concentration and fitted in GraphPad Prism to determine the IC50 values using a four-parameter logistic equation.

WHSC1L1 1054–1285 = target: T2, WHSC1L1 1054–1285 (Homo sapiens, UniProt Q9BZ95); test: WHSC1L1 1054–1285 radiometric biochemical assay; conditions: 40 nM enzyme, 6 μM total SAM, 0.8 μM peptide, 30 min pre-incubation, three independent replicates
T2 construct: A WHSC1L1 construct containing amino acids 1054–1285; His-TEV (N, cleaved yes); made in house; host or cells: E. coli
T2 sequence (Q9BZ95 1054-1285): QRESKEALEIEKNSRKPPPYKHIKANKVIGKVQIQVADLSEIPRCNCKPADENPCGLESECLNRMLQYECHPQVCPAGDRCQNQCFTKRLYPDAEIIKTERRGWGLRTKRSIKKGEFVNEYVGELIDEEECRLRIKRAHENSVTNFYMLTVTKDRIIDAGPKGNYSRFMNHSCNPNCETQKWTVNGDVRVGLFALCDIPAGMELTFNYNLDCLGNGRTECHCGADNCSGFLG
Procedure: as §1, §2

[1] = target: T3, Avi-tagged WHSC1 941–1240 (Homo sapiens, UniProt O96028); test: SPR binding assay, Avi-tagged WHSC1 941–1240
T3 construct: purchased BPS Bioscience 111207
T3 sequence (O96028 941-1240 limits assumed): T1 sequence (O96028 941-1240)
Procedure: The SPR binding assay for Avi-tagged WHSC1 941–1240 was performed at 15°C using the Biacore T200 system (GE Healthcare, Marlborough, MA). The running buffer contained 25 mM Tris-HCl pH 8.0, 150 mM NaCl, 5 mM DTT, 0.05% Tween-20, 10 μM ZnCl2, 50 μM SAM, and 2% DMSO. Biotinylated WHSC1 was immobilized on a streptavidin-coated SA chip up to 3700 RU (response units). The reference cell was blocked with PEG-biotin. Peptide inhibitor was injected at a flow rate of 50 μL/min with a 3-fold, 5-point dilution series ending at a 20 μM top concentration. Association and dissociation times were 240 and 2400 seconds, respectively. Double-referenced data were analyzed globally using a 1:1 binding model in BIAevaluation software.
WHSC1 was immobilized on a streptavidin-coated chip and peptide inhibitor was co-injected with SAM utilizing a 3-fold, 5-point dilution series ending at a 20 μM top concentration.
WHSC1 was immobilized on a streptavidin-coated chip and peptide inhibitor was either injected in the absence of cofactor (left panel), co-injected with SAH (middle panel), or co-injected with SFG (right panel) utilizing a 2-fold, 10-point dilution series ending at a 100 μM top concentration.

EZH1 = EZH1 (Homo sapiens, UniProt Q92800); test: HMT panel biochemical assay, EZH1; conditions: HMT selectivity panel
EZH2 = EZH2 (Homo sapiens, UniProt Q15910); test: HMT panel biochemical assay, EZH2; conditions: HMT selectivity panel
G9a = target: T4, G9a (Homo sapiens, UniProt Q96KQ7); test: HMT panel biochemical assay, G9a; conditions: HMT selectivity panel
T4 sequence (Q96KQ7 1-1210): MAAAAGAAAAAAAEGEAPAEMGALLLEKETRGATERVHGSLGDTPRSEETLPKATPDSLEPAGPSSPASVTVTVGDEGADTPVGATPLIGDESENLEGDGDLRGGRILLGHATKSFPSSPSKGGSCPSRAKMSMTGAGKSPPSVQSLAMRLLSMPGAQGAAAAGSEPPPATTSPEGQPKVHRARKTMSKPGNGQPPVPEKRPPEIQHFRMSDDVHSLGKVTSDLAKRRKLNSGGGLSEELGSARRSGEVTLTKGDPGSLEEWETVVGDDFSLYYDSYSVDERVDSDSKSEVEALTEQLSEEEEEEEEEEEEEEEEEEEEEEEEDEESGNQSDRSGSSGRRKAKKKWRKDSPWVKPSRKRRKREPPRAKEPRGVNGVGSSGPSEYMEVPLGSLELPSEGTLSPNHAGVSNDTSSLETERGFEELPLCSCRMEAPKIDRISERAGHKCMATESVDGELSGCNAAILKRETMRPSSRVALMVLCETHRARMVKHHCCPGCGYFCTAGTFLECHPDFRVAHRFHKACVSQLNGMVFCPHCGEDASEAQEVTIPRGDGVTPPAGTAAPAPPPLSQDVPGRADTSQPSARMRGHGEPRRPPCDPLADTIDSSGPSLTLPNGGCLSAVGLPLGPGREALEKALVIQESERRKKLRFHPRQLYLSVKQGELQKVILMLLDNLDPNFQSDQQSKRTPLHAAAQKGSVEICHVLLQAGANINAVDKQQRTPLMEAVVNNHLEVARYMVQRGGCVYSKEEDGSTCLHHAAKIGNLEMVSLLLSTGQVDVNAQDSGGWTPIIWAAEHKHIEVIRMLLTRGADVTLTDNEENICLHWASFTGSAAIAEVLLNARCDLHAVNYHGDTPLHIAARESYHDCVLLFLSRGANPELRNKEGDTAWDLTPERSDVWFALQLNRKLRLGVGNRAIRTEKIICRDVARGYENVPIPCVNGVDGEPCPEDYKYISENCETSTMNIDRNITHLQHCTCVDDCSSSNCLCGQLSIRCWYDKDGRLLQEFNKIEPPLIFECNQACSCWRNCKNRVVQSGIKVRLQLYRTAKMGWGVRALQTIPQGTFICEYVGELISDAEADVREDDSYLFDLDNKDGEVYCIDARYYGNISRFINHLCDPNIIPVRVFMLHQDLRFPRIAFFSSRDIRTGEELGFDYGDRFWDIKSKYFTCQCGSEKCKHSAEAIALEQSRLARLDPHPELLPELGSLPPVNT

SMYD2 = SMYD2 (Homo sapiens, UniProt Q9NRG4); test: HMT panel biochemical assay, SMYD2; conditions: HMT selectivity panel
SETDB1 = SETDB1 (Homo sapiens, UniProt Q15047); test: HMT panel biochemical assay, SETDB1; conditions: HMT selectivity panel
PRMT6 = PRMT6 (Homo sapiens, UniProt Q96LA8); test: HMT panel biochemical assay, PRMT6; conditions: HMT selectivity panel
[2] = ratio of WHSC1 941–1240 biochemical IC50 values

Chain of EZH1 (Q92800 whole entry, species assumed): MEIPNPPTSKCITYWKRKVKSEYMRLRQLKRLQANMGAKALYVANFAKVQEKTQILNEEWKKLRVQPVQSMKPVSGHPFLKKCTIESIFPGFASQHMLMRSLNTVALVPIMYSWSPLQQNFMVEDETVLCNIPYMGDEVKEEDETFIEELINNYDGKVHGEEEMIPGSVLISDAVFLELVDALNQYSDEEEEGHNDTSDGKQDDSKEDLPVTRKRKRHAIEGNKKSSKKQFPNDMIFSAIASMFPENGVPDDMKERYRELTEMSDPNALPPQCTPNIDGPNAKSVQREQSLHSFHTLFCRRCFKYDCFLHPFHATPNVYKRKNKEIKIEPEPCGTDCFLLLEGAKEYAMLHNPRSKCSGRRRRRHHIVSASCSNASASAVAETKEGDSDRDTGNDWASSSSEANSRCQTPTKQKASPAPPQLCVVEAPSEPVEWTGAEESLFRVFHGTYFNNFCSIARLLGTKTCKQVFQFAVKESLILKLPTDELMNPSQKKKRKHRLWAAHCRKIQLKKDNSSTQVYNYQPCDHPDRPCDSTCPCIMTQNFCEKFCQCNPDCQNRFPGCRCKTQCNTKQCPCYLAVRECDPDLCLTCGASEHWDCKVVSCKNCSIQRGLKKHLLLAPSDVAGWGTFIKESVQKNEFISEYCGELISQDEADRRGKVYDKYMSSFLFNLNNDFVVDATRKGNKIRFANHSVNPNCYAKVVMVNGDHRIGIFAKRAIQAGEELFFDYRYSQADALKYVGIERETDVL
Chain of EZH1 (O75530 whole entry partner, species assumed): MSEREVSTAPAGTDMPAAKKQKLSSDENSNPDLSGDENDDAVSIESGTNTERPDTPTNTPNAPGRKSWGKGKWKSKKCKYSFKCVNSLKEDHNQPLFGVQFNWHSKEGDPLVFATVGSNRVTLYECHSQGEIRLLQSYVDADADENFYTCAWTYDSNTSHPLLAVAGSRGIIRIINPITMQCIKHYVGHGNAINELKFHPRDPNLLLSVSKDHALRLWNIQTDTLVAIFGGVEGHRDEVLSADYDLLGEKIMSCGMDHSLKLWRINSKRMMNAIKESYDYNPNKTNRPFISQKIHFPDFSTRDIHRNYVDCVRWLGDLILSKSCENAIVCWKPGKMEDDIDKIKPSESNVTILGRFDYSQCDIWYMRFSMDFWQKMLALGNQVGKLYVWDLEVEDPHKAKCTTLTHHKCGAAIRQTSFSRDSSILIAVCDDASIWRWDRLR
Chain of EZH1 (Q15022 whole entry partner, species assumed): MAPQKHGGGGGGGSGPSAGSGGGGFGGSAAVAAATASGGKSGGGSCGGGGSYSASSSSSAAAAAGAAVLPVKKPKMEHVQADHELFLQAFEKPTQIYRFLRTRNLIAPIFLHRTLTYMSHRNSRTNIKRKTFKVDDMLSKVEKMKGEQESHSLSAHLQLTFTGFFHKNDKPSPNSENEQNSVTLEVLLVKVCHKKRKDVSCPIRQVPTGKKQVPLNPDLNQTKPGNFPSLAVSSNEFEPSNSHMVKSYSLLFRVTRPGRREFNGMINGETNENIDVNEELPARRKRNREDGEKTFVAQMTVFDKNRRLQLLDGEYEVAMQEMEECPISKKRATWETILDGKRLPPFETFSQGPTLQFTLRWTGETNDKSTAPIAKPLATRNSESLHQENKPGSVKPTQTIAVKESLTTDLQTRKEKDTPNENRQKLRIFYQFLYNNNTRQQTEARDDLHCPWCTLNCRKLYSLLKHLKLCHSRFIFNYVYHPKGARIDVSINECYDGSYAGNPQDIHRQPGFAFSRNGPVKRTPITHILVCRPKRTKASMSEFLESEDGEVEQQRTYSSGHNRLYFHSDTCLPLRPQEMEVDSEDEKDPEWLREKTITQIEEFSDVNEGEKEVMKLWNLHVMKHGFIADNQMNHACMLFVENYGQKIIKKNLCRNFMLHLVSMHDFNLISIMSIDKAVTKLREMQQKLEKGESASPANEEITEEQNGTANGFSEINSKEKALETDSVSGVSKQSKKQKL
Chain of SMYD2 (Q9NRG4 whole entry, species assumed): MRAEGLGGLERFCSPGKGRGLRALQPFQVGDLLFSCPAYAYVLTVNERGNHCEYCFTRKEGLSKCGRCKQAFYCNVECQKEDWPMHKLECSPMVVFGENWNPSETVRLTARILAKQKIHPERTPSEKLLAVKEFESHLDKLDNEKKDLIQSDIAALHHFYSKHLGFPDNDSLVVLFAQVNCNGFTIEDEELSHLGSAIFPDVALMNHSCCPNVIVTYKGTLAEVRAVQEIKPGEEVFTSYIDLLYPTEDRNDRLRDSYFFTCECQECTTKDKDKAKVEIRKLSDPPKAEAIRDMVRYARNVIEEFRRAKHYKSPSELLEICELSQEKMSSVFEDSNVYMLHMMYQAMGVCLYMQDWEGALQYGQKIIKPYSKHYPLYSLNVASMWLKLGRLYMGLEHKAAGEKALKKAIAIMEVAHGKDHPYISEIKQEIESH
Chain of EZH2 (Q15910 whole entry, species assumed): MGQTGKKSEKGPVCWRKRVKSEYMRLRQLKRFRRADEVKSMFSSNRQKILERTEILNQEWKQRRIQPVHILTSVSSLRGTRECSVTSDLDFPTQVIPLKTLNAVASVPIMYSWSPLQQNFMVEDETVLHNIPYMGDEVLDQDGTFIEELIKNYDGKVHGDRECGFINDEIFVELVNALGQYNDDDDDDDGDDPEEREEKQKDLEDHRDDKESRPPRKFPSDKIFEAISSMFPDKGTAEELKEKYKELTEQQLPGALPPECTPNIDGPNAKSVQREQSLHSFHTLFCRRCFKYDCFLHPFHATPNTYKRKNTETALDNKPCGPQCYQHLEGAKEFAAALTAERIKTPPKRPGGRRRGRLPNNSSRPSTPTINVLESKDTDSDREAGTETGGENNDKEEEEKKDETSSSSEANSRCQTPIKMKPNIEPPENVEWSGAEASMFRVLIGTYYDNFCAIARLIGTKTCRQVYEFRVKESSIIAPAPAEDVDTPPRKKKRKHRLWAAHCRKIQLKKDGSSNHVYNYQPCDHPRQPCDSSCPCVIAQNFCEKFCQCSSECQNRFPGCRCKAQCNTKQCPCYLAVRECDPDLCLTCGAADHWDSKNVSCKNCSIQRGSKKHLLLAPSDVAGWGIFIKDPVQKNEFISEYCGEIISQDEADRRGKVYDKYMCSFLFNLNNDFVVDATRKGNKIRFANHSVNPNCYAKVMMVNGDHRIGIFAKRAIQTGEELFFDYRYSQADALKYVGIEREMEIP
Chain of EZH2 (O75530 whole entry partner, species assumed): as the sequence (O75530 whole entry partner, species assumed) above
Chain of EZH2 (Q15022 whole entry partner, species assumed): as the sequence (Q15022 whole entry partner, species assumed) above
Chain of PRMT6 (Q96LA8 whole entry, species assumed): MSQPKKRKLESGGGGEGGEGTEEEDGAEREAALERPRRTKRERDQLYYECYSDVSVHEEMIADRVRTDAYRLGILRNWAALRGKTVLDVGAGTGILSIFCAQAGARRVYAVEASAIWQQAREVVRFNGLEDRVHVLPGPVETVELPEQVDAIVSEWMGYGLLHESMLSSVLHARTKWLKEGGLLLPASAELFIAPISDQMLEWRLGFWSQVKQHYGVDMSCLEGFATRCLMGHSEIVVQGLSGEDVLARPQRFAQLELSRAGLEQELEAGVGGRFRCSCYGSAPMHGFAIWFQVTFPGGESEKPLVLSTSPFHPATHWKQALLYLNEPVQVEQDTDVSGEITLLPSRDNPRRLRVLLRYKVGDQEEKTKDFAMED

With `CCCC[C@H](NC(=O)[C@@H](NC(=O)CNC(=O)CNC(=O)[C@H](CCCNC(=N)N)NC(=O)[C@H](CCCNC(=N)N)NC(=O)[C@H](C)NC(=O)[C@H](CC(C)C)NC(=O)[C@H](CCCNC(=N)N)NC(C)=O)C(C)C)C(=O)N[C@@H](CCCNC(=N)N)C(=O)N[C@H](C(=O)N[C@@H](CO)C(=O)NCC(=O)N[C@@H](CC(C)C)C(=O)N[C@H](C(N)=O)[C@@H](C)CC)[C@@H](C)CC` [PTD1] (Ac-RLARRGGV[Nle]RISGLI-NH2) the IC50 (WHSC1 941–1240) was 0.088 ± 0.005 µM, the “fold more potent towards WHSC1 than the 5 residue Nle peptide (PTD2)” value (WHSC1 941–1240; [2]) was 250 fold and the IC50 (WHSC1L1 1054–1285) was 1.1 ± 0.1 µM. For the same compound, the “SPR behaviour on the sensor surface” value ([1]; at concentrations greater than 1 μM, affinity to WHSC1 could not be determined) was “non-specific matrix interactions”.
`CCCC[C@H](NC(=O)[C@@H](NC(=O)CNC(C)=O)C(C)C)C(=O)N[C@@H](CCCNC(=N)N)C(=O)N[C@H](C(N)=O)[C@@H](C)CC` [PTD2] was tested, and the “SPR binding in the absence of cofactor” value ([1]; no cofactor, 2-fold, 10-point dilution, top concentration 100 μM) was “no binding is observed”, the IC50 (EZH1) was greater than 200 µM and the IC50 (EZH2) was greater than 200 µM. The IC50 (G9a) was greater than 200 µM, the IC50 (SMYD2) was greater than 200 µM and the IC50 (SETDB1) was greater than 200 µM. The IC50 (PRMT6) was greater than 200 µM.
Work on `CCCC[C@H](NC(=O)[C@@H](NC(=O)CNC(=O)CNC(C)=O)C(C)C)C(=O)N[C@@H](CCCNC(=N)N)C(N)=O` [PTD4] (Ac-GGV[Nle]R-NH2) yielded an IC50 (WHSC1 941–1240) of 180 ± 20 µM and an IC50 (WHSC1L1 1054–1285) of 320 ± 30 µM.
`CCCC[C@H](NC(=O)[C@@H](NC(=O)CNC(=O)CNC(=O)[C@H](CCCNC(=N)N)NC(C)=O)C(C)C)C(N)=O` [PTD5] (Ac-RGGV[Nle]-NH2) showed an IC50 (WHSC1 941–1240) of 190 ± 20 µM and an IC50 (WHSC1L1 1054–1285) of 110 ± 10 µM.
Compound `CCCC[C@H](NC(=O)[C@@H](NC(C)=O)C(C)C)C(=O)N[C@@H](CCCNC(=N)N)C(=O)N[C@H](C(=O)N[C@@H](CO)C(N)=O)[C@@H](C)CC` [PTD6] (Ac-V[Nle]RIS-NH2) has an IC50 (WHSC1 941–1240) of 110 ± 20 µM and an IC50 (WHSC1L1 1054–1285) of 3 ± 0.3 µM.
Work on `CCCC[C@H](NC(C)=O)C(=O)N[C@@H](CCCNC(=N)N)C(=O)N[C@H](C(=O)N[C@@H](CO)C(=O)NCC(N)=O)[C@@H](C)CC` [PTD7] (Ac-[Nle]RISG-NH2) yielded an IC50 (WHSC1 941–1240) of 200 ± 40 µM and an IC50 (WHSC1L1 1054–1285) greater than 1000 µM.
In the case of `CCCC[C@H](NC(=O)[C@@H](NC(=O)CNC(=O)CNC(=O)[C@@H](NC(=O)[C@H](C)NC(=O)[C@@H]1CCCN1C(=O)[C@H](C)NC(=O)[C@H](CO)NC(C)=O)[C@@H](C)O)C(C)C)C(=O)N[C@@H](CCCCN)C(=O)N1CCC[C@H]1C(=O)N[C@@H](Cc1c[nH]cn1)C(=O)N[C@@H](CCCNC(=N)N)C(=O)N[C@@H](Cc1ccc(O)cc1)C(=O)N[C@@H](CCCNC(=N)N)C(N)=O` [PTD8], the IC50 (WHSC1 941–1240) is reported as 13 ± 1 µM, the “fold loss in WHSC1 potency compared with PTD1” value (WHSC1 941–1240; [2]) is reported as 150 fold and the IC50 (WHSC1L1 1054–1285) is reported as 190 ± 30 µM.
With `CCCC[C@H](NC(=O)[C@@H](NC(=O)CNC(C)=O)C(C)C)C(=O)N[C@@H](CCCCN)C(=O)N1CCC[C@H]1C(N)=O` [PTD9] (Ac-GV[Nle]KP-NH2) the IC50 (WHSC1 941–1240) was 130 ± 20 µM, the “fold decrease in WHSC1 potency relative to PTD2” value (WHSC1 941–1240; [2]) was 6 fold and the IC50 (WHSC1L1 1054–1285) was 370 ± 40 µM.
Ac-GVARI-NH2 [PTD3] was tested, and the IC50 (WHSC1 941–1240) was 640 ± 70 µM, the “fold decrease in WHSC1 potency relative to PTD2” value (WHSC1 941–1240; [2]) was 30 fold and the IC50 (WHSC1L1 1054–1285) was greater than 1000 µM.
